In data set [1] the test system is Mus musculus. Kind of data set: Antinociceptive activity in po dosed 129Sv6 mouse model assessed as time required for peak effect at ED50 by radiant heat tail flick assay. The format is functional. (In general: In hot-plate and tail-flick tests a longer latency is read as antinociception.)
Data set [2] in a line: Drug metabolism in 129Sv6 mouse liver microsomes assessed as mitragynine pseudoindoxyl formation at 1 uM incubated for 60 mins in presence of ketoconazole by LC-MS/MS analysis. The format is ADME, Microsome. The conditions noted are these: 1 h.
A short description of data set [3]: Drug metabolism in 129Sv6 mouse liver microsomes assessed as 3-dehydromitragynine formation at 1 uM incubated for 60 mins in presence of ketoconazole by LC-MS/MS analysis. The settings on record: 1 h. The format is ADME, Microsome.
Data set [4] is described as follows: Drug metabolism in human S9 fraction assessed as mitragynine pseudoindoxyl formation at 1 uM incubated for 60 mins in presence of NADPH by LC-MS/MS analysis. It is filed as ADME, subcellular. The settings on record: s9, 1 h.
Data set [5] can be described thus: Drug metabolism in human liver microsomes assessed as 3-dehydromitragynine formation at 1 uM incubated for 60 mins by LC-MS/MS analysis. It is filed as ADME, Microsome. The conditions noted are these: 1 h. (Liver microsomes are vesicles of endoplasmic reticulum, rich in cytochrome P450 enzymes.)
Data set [6] is described as follows: Drug metabolism in human liver microsomes assessed as mitragynine pseudoindoxyl formation at 1 uM incubated for 60 mins by LC-MS/MS analysis. It is filed as ADME, Microsome. The conditions noted are these: 1 h.
Data set [7] addresses T1, Cytochrome P450 3A (Mus musculus, UniProt O09158+Q64464+Q64481+Q9JMA7). The experiment in a line: Metabolic stability in CYP3A KO C57BL/6J mouse liver microsomes assessed as CYP3A-mediated decomposition by measuring half life at 1 uM incubated for 60 mins in presence of ketoconazole by LC-MS/MS analysis. The format is ADME, Microsome. The conditions noted are these: 1 h.

Data set [8] is described as follows: Drug metabolism in C57BL/6J mouse liver microsomes assessed as 3-dehydromitragynine formation at 1 uM incubated for 60 mins by LC-MS/MS analysis. The format is ADME, Microsome. The conditions noted are these: 1 h.
The nature of data set [9]: Drug concentration in 129Sv6 mouse brain at 10 mg/kg, sc measured after 15 mins by LC-MS/MS analysis. The format is ADME, organism-based. The settings on record: read-out: Ct.
The nature of data set [10]: Drug metabolism in 129Sv6 mouse plasma assessed as 3-dehydromitragynine formation at ED80, po. It is filed as ADME, cell-free.
Data set [11] in a line: Drug metabolism in human liver microsomes assessed as mitragynine pseudoindoxyl formation at 1 uM incubated for 60 mins in presence of ketoconazole by LC-MS/MS analysis. It is filed as ADME, Microsome. The settings on record: 1 h.
For data set [12], the system named is Mus musculus. Kind of data set: Antinociceptive activity in MOR knock out C57BL/6J mouse at 45 mg/kg, po measured after 20 mins. The format is functional, organism-based.
Data set [13] deals with Mus musculus. Kind of data set: Antinociceptive activity in sc dosed 129Sv6 mouse model assessed as time required for peak effect at ED50 by radiant heat tail flick assay. It is filed as functional.
Data set [14] deals with Mus musculus. Kind of data set: Antinociceptive activity in po dosed 129Sv6 mouse model assessed as peak effect measured at 15 mins by radiant heat tail flick assay. The format is functional. The conditions noted are these: 129Sv6, 0.25 h.
Data set [15] in a line: Drug concentration in 129Sv6 mouse brain at 10 mg/kg, po measured after 15 mins by LC-MS/MS analysis. It is filed as ADME, organism-based. The settings on record: read-out: Ct.
Data set [16] in a line: Drug metabolism in C57BL/6J mouse liver microsomes assessed as mitragynine pseudoindoxyl formation at 1 uM incubated for 60 mins in presence of ketoconazole by LC-MS/MS analysis. The format is ADME, Microsome. The conditions noted are these: 1 h.
Data set [17] in a line: Drug metabolism in C57BL/6J mouse brain assessed as mitragynine pseudoindoxyl formation at 30 mg/kg, po measured after 8 hrs by LC-MS/MS analysis. The format is ADME, organism-based. The conditions noted are these: in vivo.
A short description of data set [18]: Drug metabolism in 129Sv6 mouse liver microsomes assessed as 3-dehydromitragynine formation at 1 uM incubated for 60 mins by LC-MS/MS analysis. It is filed as ADME, Microsome. The conditions noted are these: 1 h.
The nature of data set [19]: Stability in 129Sv6 mouse liver microsomes assessed as half life at 1 uM incubated for 60 mins by LC-MS/MS analysis. The settings on record: 1 h. It is filed as ADME, Microsome.
Data set [20] in a line: Drug metabolism in C57BL/6J mouse plasma assessed as 3-dehydromitragynine formation at ED80, po. It is filed as ADME, cell-free.
Data set [21] concerns the target T1, Cytochrome P450 3A. Kind of data set: Metabolic stability in C57BL/6J mouse liver microsomes assessed as CYP3A-mediated decomposition by measuring half life at 1 uM incubated for 60 mins in presence of ketoconazole by LC-MS/MS analysis. It is filed as ADME, Microsome. The settings on record: 1 h.

Activity calls are given as the source filed them. No cut-off for these calls is given here.

The term ED50 denotes the dose at which the effect has come halfway, by size or by number of responders. On to `CC[C@@H]1CN2CCc3c([nH]c4cccc(OC)c34)[C@@H]2C[C@@H]1/C(=C\OC)C(=O)OC`, for which the Time with Mus musculus [1] and in the data set on Mus musculus [13] was 15 min throughout. For the same molecule, the Drug metabolism result is recorded as “Metabolite_Notdetected” in [2]; “Metabolite_Detected” in [3]; “Metabolite_Detected” in [4]; “Metabolite_Detected” in [5]; “Metabolite_Detected” in data set [6]; “Metabolite_Detected” in data set [8]. The Drug metabolism in [10] is 0.028 µM; in [11], “Metabolite_Notdetected”; in [16], “Metabolite_Notdetected”; in [17] it was “Metabolite_Notdetected”; in data set [18] it was “Metabolite_Detected”; in data set [20], 0.037 µM. In addition, the t1/2 on Cytochrome P450 3A [7] stood at 25.2 min; in data set [19], 13.5 min; at Cytochrome P450 3A [21], 35.8 min. The figures for the concentration at 0.25 h in data set [9] and in data set [15] were 30.1 µM and 12.2 µM, respectively. Also, in the data set on Mus musculus [12], the outcome was inactive. Besides, the ED50 in the data set on Mus musculus [14] is 4 mg/kg.

These data come from ChEMBL document CHEMBL5233277, “Oxidative Metabolism as a Modulator of Kratom's Biological Actions” (J Med Chem, 2021).
